# Literature values as cited in patent US9056184B2, “Methods for renal denervation” (priority 2010, dated 2015).
# Key:
# [1] = molecular target: tetrodotoxin-sensitive voltage-gated sodium channel (TTX-s Na+ channel); settings: read-out: binding affinity
# [2] = molecular target: tetrodotoxin-resistant voltage-gated sodium channel (TTX-r Na+ channel)
# CYP3A4 = settings: in vivo
# [3] = after initiation of therapy
# [4] = in vivo
smiles,measurement,setting,value
NC1=N[C@H](O)[C@H]2[C@H]3O[C@]4(O)O[C@@H]([C@@H](O)[C@@]2(N1)[C@@H]4O)[C@]3(O)CO [Tetrodotoxin],Kd,[1],5 to 15 nM
same,binding affinity,[2],low micromolar
"NC(=O)N1c2ccccc2C=Cc2ccccc21 [carbamazepine, Carbamazepine]",time for auto-induction to reach a plateau,CYP3A4,5 to 7 days
same,time to stable carbamazepine concentrations,[3],2-3 weeks
[Li] [lithium],toxic amounts,[4],> 1.5 mmol/L
